Data taken from US6702803B2, “Multi-step drug dosage forms” (Delsys Pharmaceutical Corporation, priority 2000, dated 2004).

Assay: Compatibility study of Drug A with polymeric films (chromatographic purity on storage)
Format: physicochemical
Settings: HPMC film, HPMC/HPC blend film, polyvinyl alcohol film; 25°C/60% RH, 40°C/75% RH (closed and open bottle), 50°C; 2 to 12 weeks
Procedure: Compatibility studies were conducted to assess the compatibility of Drug A with several polymeric films, to determine an appropriate material for the substrate. The films studied were an HPMC film, an. HPMC/HPC blend film, and a polyvinyl alcohol film. Each film was cut into pieces approximately 0.5 cm square and a piece of each film was placed into a glass bottle. Approximately 500 mg of Drug A was added to each bottle. The bottles were closed with Teflon lined plastic caps. Bottles of Drug A and each of the films separately were prepared and used as controls. The controls and drug/polymer samples were stored in a closed chamber under the following conditions, and tested at the indicated time periods: A) 25° C.±2° C.; 60% RH±5%; tested at 2,4 and 12 weeks; B) 40° C.±2° C.; 75% RH±5%; tested at 2,4 and 12 weeks; C) 40° C.±2 S^C; 75% RH±5%, open bottle; tested at 2, 4 and 12 weeks; and D) 50° C.±2*C.; no humidity control; tested at 2,4, and 8 weeks. At each time point, the samples were tested for chromatographic purity. […] Several dosage forms were made, as outlined in Table 1. “ER” refers to the extended release portion. “HPMC, HPC” refers to a hydroxypropyrmethyl cellulose, hydroxypropyl cellulose copolymer. “PEO” refers to a polyethylene oxide polymer, “HPMC, PEG” refers to hydroxypropylmethyl cellulose containing polyethylene glycol (PEG) plasticizer.

For `Cc1nccn1CC1CCc2c(c3ccccc3n2C)C1=O` (stereo not shown) [Drug A, 1,2,3,9-tetrahydro-9-methyl-3-[(2-methyl-1H-imidazol-1-yl)methyl]-4H-carbazol-4-one], which “change in chromatographic purity of Drug A stored with polymer films, compared to control samples” value is on record?
The value was “no changes in purity”.
